In patent publication US7365096B2, “Methods for selectively inhibiting Janus tyrosine kinase 3 (Jak3)” (Board of Regents, The University of Texas System, priority 2002, dated 2008):

Columns and labels:
[1] = system: γc/Jak3-dependent PHA-activated human T cells; assay: Proliferation of PHA-activated human T cells ([3H]-thymidine); type: cell-based; conditions: for proliferation of PHA-activated human T cells following stimulation with IL-2 (FIG. 7A): IL-2 stimulated
Method: Cell culture and treatment. The rat T-cell line Nb2-11c, originally developed by Dr. Peter Gout (Vancouver, Canada), was grown in RPMI-1640 with 10% fetal calf serum (Intergen, cat. no. 1020-90), 2 mM L-glutamine, 5 mM HEPES, pH 7.3, and penicillin-streptomycin (50 IU/ml and 50 μg/ml, respectively), at 37° C./5% CO2. Freshly explanted normal human T lymphocytes purified by isocentrifugation (Ficoll®; EM Science, Gibbstown, N.J.) were phytohemagglutinin (PHA)-activated for 72 hours as previously described.^23 T lymphocytes were made quiescent by washing and incubating for 24 hours in RPMI-1640 medium containing 1% fetal calf serum before exposure to cytokines. […] The Mannich base 649641P (NC1153) was generously provided by Dr. Jonathan Dimmock College of Pharmacy, University of Saskatchewan, Saskatoon, Saskatchewan, Canada. All cells were then stimulated with 1 nM recombinant human IL-2 (Hoffman-LaRoche, Basel, Switzerland), IL4 or IL7 (PeproTech), or ovine prolactin (PRL) supplied by the National Hormone and Pituitary Program, National Institute of Diabetes, Digestive, and Kidney Disease (Bethesda, Md.), at 37° C. Cell pellets were frozen at −70° C.
Proliferation assays. Quiescent human primary T-cells, YT or rat Nb2-11c T-cells (5.0×10^4/well) were plated in flat-bottom, 96-well microtiter plates in 200 μl of quiescent media in the absence or presence of 1 nM IL-2, -4, -7 (PeproTech, Rock Hill, N.J.), or PRL. Next, cells were treated for 16 hours with the Mannich base drug and then pulsed for 4 hours with [^3H]-thymidine (0.5 μCi/200 μl) and harvested onto fiberglass filters. [^3H]-thymidine incorporation was analyzed by liquid scintillation counting as previously described,^23 or using standard techniques that are well known in the art.

allograft = conditions: in vivo; cited from earlier work
Jak3 [2] = target: T1, Jak3 (Homo sapiens, UniProt P52333); conditions: cited from earlier work
T1 sequence (P52333 1-1124): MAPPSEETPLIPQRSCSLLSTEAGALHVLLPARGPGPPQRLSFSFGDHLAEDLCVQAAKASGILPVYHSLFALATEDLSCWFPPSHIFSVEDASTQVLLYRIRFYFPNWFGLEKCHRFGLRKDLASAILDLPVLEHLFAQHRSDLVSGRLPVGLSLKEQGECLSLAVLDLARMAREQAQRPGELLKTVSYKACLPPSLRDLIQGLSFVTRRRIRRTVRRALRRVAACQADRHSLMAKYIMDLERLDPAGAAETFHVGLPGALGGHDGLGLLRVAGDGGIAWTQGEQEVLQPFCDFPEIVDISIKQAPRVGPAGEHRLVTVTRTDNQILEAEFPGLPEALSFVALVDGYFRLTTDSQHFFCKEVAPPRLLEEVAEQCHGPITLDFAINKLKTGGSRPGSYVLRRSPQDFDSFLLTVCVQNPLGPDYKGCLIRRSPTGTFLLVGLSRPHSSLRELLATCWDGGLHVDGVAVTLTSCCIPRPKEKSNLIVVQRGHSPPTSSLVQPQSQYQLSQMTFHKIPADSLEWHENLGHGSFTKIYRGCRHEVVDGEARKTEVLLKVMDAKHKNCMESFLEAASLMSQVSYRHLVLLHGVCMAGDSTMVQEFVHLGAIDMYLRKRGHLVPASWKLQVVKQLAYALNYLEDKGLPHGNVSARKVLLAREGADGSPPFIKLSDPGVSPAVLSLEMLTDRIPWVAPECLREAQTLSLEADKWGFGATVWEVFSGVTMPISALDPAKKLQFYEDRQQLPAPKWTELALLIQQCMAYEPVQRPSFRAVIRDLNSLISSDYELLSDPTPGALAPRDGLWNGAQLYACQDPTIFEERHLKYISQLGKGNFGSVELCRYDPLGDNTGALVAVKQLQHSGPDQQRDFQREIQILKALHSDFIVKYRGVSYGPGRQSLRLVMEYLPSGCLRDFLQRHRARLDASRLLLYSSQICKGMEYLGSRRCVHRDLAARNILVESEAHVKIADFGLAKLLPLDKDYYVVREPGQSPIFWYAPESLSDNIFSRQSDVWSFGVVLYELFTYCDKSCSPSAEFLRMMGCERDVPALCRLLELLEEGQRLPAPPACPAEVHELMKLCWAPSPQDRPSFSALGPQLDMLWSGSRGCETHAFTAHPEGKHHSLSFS

[3] = system: T-cell proliferation mediated by TCGFs; conditions: cited from earlier work
[4] = system: Jak3 mediated T-cell growth; conditions: cited from earlier work
p56Lck = p56Lck (Homo sapiens, UniProt P06239); conditions: cited from earlier work
p56Lck, sequence (P06239 whole entry, species assumed): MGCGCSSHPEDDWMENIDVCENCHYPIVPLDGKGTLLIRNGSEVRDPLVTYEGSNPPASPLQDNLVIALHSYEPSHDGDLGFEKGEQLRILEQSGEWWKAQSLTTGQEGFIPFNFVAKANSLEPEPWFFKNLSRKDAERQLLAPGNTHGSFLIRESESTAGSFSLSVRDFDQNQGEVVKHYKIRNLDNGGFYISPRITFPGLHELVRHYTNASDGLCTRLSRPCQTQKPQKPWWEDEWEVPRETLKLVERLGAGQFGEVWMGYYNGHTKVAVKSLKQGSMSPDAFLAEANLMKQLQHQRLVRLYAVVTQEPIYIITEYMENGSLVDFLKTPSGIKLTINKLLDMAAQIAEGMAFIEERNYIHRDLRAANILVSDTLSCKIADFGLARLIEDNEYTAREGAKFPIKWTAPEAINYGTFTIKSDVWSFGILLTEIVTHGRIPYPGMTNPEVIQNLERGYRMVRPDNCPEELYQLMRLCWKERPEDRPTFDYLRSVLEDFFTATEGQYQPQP

Zap70 = target: T2, Zap70 (Homo sapiens, UniProt P43403); conditions: cited from earlier work
T2 sequence (P43403 1-619): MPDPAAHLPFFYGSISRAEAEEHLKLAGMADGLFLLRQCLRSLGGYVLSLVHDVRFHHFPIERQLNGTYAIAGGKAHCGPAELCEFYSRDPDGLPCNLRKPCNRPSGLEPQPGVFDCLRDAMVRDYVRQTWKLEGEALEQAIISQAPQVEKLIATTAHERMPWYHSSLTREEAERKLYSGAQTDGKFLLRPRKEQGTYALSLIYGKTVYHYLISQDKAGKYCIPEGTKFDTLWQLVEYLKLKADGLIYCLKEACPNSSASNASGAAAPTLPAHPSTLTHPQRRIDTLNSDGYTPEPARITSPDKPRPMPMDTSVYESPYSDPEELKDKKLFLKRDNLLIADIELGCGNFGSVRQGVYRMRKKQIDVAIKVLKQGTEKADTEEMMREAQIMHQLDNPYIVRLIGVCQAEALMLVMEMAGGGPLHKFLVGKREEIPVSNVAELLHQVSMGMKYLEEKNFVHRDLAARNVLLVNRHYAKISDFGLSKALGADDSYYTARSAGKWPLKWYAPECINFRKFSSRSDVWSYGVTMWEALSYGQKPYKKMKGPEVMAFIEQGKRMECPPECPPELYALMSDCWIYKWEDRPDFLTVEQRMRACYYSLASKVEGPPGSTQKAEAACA

Jak3 [5] = target: T1, Jak3; conditions: cited from earlier work; remark: listed apart in the source
[6] = rat, in vivo
Jak = conditions: cited from earlier work
Syk = Syk (Homo sapiens, UniProt P43405); conditions: cited from earlier work
Src = Src (Homo sapiens, UniProt P12931); conditions: cited from earlier work
Src, sequence (P12931 whole entry, species assumed): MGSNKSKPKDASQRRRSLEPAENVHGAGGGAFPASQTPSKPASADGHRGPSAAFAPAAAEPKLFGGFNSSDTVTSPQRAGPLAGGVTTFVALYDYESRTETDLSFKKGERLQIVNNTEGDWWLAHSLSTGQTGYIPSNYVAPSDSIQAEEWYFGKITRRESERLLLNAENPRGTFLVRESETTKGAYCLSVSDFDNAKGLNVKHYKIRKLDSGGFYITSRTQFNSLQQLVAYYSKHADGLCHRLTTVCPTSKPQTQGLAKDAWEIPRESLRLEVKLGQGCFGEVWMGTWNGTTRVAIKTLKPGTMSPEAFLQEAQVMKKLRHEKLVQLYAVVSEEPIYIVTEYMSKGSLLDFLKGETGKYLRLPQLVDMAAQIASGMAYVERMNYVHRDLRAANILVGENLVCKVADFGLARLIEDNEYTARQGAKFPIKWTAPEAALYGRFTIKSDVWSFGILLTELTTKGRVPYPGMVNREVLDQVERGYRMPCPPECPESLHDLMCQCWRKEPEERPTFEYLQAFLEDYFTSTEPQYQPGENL

[7] = system: graft infiltrating mononuclear cells (GICs); conditions: rat, in vivo; cited from earlier work
Lyn = Lyn (Homo sapiens, UniProt P07948); conditions: cited from earlier work
Lyn, sequence (P07948 whole entry, species assumed): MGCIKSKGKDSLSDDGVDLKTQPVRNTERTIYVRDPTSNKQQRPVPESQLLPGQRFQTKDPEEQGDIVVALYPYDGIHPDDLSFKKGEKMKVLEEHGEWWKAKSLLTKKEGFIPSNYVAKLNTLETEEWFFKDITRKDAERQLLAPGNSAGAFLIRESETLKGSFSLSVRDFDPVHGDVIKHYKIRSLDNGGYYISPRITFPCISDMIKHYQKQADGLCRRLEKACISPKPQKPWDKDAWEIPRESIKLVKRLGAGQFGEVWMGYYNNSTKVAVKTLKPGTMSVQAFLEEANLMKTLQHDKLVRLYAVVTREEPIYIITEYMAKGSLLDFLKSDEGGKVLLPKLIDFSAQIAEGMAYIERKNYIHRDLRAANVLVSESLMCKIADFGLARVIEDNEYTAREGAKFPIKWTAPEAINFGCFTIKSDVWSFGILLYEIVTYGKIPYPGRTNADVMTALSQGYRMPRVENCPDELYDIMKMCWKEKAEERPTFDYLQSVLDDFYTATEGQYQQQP

Lck = Lck (Homo sapiens, UniProt P06239); conditions: cited from earlier work
Lck, sequence (P06239 whole entry, species assumed): as the sequence (P06239 whole entry, species assumed) above

Tyk2 = Tyk2 (Homo sapiens, UniProt P29597); conditions: cited from earlier work
Tyk2, sequence (P29597 whole entry, species assumed): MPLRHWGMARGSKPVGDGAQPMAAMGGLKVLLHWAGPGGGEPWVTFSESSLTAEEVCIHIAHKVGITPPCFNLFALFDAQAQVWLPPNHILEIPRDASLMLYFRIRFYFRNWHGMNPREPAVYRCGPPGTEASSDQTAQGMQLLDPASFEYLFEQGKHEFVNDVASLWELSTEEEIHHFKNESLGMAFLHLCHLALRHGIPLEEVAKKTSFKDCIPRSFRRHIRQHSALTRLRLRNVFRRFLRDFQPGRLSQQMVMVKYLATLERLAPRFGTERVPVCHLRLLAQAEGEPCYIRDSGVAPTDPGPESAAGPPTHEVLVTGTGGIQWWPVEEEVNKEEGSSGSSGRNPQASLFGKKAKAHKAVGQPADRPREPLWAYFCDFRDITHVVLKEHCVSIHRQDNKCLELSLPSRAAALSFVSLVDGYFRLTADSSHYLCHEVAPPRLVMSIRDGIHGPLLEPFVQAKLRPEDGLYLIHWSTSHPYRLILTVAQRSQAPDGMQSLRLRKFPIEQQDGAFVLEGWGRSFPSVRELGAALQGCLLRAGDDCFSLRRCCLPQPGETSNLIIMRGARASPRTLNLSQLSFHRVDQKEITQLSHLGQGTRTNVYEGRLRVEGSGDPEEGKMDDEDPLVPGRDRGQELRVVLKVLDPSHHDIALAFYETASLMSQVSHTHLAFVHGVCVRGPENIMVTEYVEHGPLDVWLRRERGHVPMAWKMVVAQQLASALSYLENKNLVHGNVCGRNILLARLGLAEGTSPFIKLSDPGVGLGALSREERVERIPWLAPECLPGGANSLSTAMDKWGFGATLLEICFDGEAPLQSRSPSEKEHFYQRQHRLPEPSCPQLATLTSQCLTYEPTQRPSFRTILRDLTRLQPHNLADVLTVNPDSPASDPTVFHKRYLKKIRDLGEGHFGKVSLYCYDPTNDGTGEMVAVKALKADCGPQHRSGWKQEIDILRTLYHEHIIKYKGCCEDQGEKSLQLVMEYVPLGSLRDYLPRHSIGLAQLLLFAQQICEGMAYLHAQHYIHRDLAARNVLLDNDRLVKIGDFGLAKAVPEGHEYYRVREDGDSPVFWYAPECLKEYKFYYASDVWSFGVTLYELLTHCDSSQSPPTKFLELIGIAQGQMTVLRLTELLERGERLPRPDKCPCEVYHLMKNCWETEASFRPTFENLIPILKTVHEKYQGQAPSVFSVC

Btk = Btk (Homo sapiens, UniProt Q06187); conditions: cited from earlier work
Btk, sequence (Q06187 whole entry, species assumed): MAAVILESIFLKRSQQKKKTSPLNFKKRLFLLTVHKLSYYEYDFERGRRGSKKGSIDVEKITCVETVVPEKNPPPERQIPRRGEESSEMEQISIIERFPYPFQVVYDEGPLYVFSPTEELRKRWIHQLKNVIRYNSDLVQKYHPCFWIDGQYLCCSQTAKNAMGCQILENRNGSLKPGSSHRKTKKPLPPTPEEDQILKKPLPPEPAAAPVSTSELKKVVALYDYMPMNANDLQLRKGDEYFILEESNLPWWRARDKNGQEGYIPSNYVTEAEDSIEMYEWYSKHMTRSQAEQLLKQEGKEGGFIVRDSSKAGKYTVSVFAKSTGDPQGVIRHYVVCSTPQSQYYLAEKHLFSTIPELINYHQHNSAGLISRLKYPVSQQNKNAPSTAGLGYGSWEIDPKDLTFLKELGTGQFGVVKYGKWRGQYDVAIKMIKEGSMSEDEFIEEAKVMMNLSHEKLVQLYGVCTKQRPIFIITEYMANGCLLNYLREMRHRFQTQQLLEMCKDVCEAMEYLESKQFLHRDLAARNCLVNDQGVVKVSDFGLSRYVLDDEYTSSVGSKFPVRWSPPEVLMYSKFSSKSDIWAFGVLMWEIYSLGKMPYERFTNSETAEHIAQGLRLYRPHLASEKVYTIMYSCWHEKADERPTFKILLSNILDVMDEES

Jak1 = Jak1 (Homo sapiens, UniProt P23458); conditions: cited from earlier work
Jak1, sequence (P23458 whole entry, species assumed): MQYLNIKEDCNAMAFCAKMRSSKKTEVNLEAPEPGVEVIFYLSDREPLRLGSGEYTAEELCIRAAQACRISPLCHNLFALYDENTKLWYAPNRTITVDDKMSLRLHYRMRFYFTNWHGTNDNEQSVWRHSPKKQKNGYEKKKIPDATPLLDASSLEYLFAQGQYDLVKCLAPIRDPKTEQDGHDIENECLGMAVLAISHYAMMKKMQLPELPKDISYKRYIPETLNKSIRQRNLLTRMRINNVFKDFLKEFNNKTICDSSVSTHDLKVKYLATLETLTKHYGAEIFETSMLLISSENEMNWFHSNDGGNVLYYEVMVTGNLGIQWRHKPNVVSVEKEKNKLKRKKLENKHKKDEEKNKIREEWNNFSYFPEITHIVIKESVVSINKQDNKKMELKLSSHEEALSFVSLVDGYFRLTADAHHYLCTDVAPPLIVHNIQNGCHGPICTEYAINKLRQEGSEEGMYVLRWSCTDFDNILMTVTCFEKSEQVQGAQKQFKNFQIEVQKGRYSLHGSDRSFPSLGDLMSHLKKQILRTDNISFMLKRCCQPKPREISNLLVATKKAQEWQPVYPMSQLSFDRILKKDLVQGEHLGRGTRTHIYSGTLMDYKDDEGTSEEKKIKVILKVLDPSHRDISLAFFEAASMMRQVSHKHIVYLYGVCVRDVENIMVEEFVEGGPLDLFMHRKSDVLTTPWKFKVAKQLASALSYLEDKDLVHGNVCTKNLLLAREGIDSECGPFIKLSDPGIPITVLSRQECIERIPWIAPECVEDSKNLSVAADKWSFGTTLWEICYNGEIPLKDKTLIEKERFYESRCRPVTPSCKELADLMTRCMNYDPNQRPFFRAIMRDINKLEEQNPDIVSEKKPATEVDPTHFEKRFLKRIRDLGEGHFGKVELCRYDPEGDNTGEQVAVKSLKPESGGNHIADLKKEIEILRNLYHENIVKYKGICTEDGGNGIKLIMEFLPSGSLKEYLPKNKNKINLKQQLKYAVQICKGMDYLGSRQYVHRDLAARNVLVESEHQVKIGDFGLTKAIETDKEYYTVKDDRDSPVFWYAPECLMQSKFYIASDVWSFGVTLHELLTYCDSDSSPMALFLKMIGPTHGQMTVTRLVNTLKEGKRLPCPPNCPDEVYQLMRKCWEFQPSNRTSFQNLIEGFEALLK

SMILES: O=C1c2ccccc2C(=O)[C@@]23O[C@@]12C1(Oc2cccc4cccc(c24)O1)[C@@H]1O[C@@H]1[C@@H]3O [compound 683332]
- proliferation of PHA-activated human T cells following stimulation with IL-2 (FIG. 7A) [1]: blocked

SMILES: CCCCCCCCCCCC1C=C/C(=C/c2[nH]c(-c3ccc[nH]3)cc2OCc2ccccc2)N1.Cl (stereo not drawn) [PNU156804]
- allograft survival (allograft): prolongs allograft survival
- interaction with CsA (allograft): synergistically
- interaction with RAPA (allograft): additively
- IC50 ([1]; Homo sapiens, IL-2 driven T-cell growth, 16 hours drug, [3H]-thymidine, read-out: IC50, disrupting cell growth): ~10 µM
- Jak3 autokinase activity (Jak3 [2]): competent to inhibit
- T-cell proliferation mediated by TCGFs [3]: competent to inhibit
- inhibition of Jak3 mediated T-cell growth by IL-2 compared to prolactin (Jak2) [4]: greater specificity
- effect on p56Lck (p56Lck): neither of those two agents affects
- effect on Zap70 (Zap70): neither of those two agents affects
- Jak3 autophosphorylation as compared with Jak2 (Jak3 [5]): preferentially inhibited

SMILES: CCCCCCCC(=O)OCC(C[As](=O)(O)O)OC(=O)CCCCCCC (stereo not drawn) [compound 655906]
- proliferation of PHA-activated human T cells following stimulation with IL-2 (FIG. 7A) [1]: blocked

SMILES: CC(=O)Oc1ccc2cc(-c3ccccc3OC(C)=O)c(=O)oc2c1 [compound 673137]
- proliferation of PHA-activated human T cells following stimulation with IL-2 (FIG. 7A) [1]: blocked

SMILES: Cc1oc2c(c1C)S(=O)(=O)C(C#N)C(c1ccccc1)N2 (stereo not drawn) [compound 693812]
- proliferation of PHA-activated human T cells following stimulation with IL-2 (FIG. 7A) [1]: blocked

SMILES: N#CCCN(CCC#N)c1ccc(C(Sc2ccccc2)C(NC(=O)c2cc([N+](=O)[O-])ccc2Cl)C(=O)Sc2ccccc2)cc1 (stereo not drawn) [compound 640674]
- proliferation of PHA-activated human T cells following stimulation with IL-2 (FIG. 7A) [1]: blocked

SMILES: COc1cc(C2C(C(=O)Nc3ccc(Cl)c(Cl)c3)=C(C)NC(C)=C2C(=O)Nc2ccc(Cl)c(Cl)c2)ccc1O [compound 637712]
- proliferation of PHA-activated human T cells following stimulation with IL-2 (FIG. 7A) [1]: blocked

SMILES: CO[C@H]1C[C@@H]2CC[C@@H](C)[C@@](O)(O2)C(=O)C(=O)N2CCCC[C@H]2C(=O)O[C@H]([C@H](C)C[C@@H]2CC[C@@H](O)[C@H](OC)C2)CC(=O)[C@H](C)/C=C(\C)[C@@H](O)[C@@H](OC)C(=O)[C@H](C)C[C@H](C)/C=C/C=C/C=C/1C [RAPA, rapamycin, reference compound]
- peripheral blood counts (PBC) [6]: reduced PBC compared to untreated rats, in contrast to SRL

SMILES: CC1(C)c2ccccc2N2O[C@@H]3C(=O)N(c4ccccc4)C(=O)[C@@H]3C21c1ccccc1 (stereo partly drawn) [compound 643423]
- proliferation of PHA-activated human T cells following stimulation with IL-2 (FIG. 7A) [1]: blocked

SMILES: N#C/C(=C\c1ccc(O)c(O)c1)C(=O)NCc1ccccc1 [AG-490]
- effects on closest related family member Jak (Jak): exert similar effects
- inhibition of Syk (Syk): does not inhibit
- inhibition of Src (Src): does not inhibit
- IL2Rα expression (ribonuclease protection assays) [7]: failed to affect
- Stat5a/b DNA binding of ex vivo IL-2 stimulated GICs [7]: reduced
- graft infiltration of mononuclear cells (GICs) [7]: reduced
- inhibition of Lyn (Lyn): does not inhibit
- inhibition of Lck (Lck): does not inhibit
- Jak3 autokinase activity (Jak3 [2]): competent to inhibit
- T-cell proliferation mediated by TCGFs [3]: competent to inhibit
- inhibition of Tyk2 (Tyk2): does not inhibit
- effect on p56Lck (p56Lck): neither of those two agents affects
- inhibition of Btk (Btk): does not inhibit
- effect on Zap70 (Zap70): neither of those two agents affects
- inhibition of Jak1 (Jak1): does not inhibit
